From patent US20100068816A1, “Genetically engineered herbicide resistance for maintaining axenic cultures” (TransAlgae Ltd, priority 2008, published 2010)

Legend:
[1] = tested on: zooplankton (e.g. Arthemia sp.); experiment: Zooplankton survivorship under CO2 and herbicide treatment; format: in vivo; conditions: microtubule-inhibiting herbicides
Protocol: (§1) To quantify CO2 effects on plankton survivorship we incubate 81 L vessels of the algae Pavlova lutheri, Isochrysis CS-177, Nannochloropsis oculata CS-179, Nannochloropsis like CS-246, Nannochloropsis salina CS-190, Tetraselmis suecica, Tetraselmis chuii and Nannochloris sp or cyanobacteria Synechococcus PCC7002, Synechococcus WH-7803, Thermosynechococcus elongatus BP-1 with or without zooplankton (e.g. Arthemia sp.). The control and zooplankton treated containers are bubbled with air, 1%, 5% and 14% CO2 together with specific herbicides that are applied at the appropriate concentrations. Algal cell density and zooplankton counts are done on each treatment over a 10 day period. Throughout the experiment pH is maintained at 7.0-8.0, which allows phytoplankton growth.

[2] = tested on: wild type algae and the cyanobacteria; experiment: Effect of microtubule-inhibiting herbicides on wild type algae and cyanobacteria
Protocol: as §1

[3] = tested on: Synechococcus PCC7002 and Synechococcus WH7803; experiment: Mixed culture of ppo transformed algae and cyanobacteria contaminants, with and without herbicide; format: cell-based; conditions: mixed culture 10:1 transformant:cyanobacteria, one week liquid culture
Protocol: To address the question of contaminants, the transformed algae are mixed with cyanobacteria such as Synechococcus PCC7002 and Synechococcus WH7803, which are known to overtake ponds. The transformant and the cyanobacteria are cultured alone and in mixed cultures with and without butafenacil or flumioxazin. The mixed culture is plated in a ratio of 10:1 transformant: cyanobacteria respectively. The cells are allowed to grow for one week in liquid culture, with daily removal of aliquots. These aliquots are counted under the microscope and the ratio of contaminants vs. algae is calculated.

[4] = tested on: wild-type algae; experiment: Butafenacil dose response on wild type algae and cyanobacteria (FIG. 11); format: cell-based; conditions: 10^−6M or 10^−7M
Protocol: FIG. 11 A Chemical structure of butafenacil. B. Butafenacil dose response on wild type algae and cyanobacteria. Strains were cultured at OD648=0.1 in 24 well plate and butafencil was applied at concentrations of 10^−5,6,7M. After a week OD648 of the cultures was measured.
Cells are allowed to generate to visible colonies. After incubation for a week the most resistant colonies are chosen. To ascertain gene transformation PCR analysis is preformed on wild type and butafenacil or flumioxazin resistant colonies.

[5] = tested on: wild type culture; experiment: Slow released herbicide embedded in photobioreactor lining: wild type culture; format: cell-based; conditions: herbicide on inner side of photobioreactor, final concentration 10^−5 to 10^−7M if fully released
Description: (§2) A hydrophobic herbicide/biocide such as flurochloridone or fluridone and/or butafenacil flumioxazin is/are applied using a volatile organic solvent such as xylene on the inner side of the polyethylene algae photobioreactor or pond liner, such that if it were fully released into the subsequent growth medium the concentration would reach a final concentration of 10^−5 to 10^−7M. Transgenically resistant algae or cyanobacteria versus wild-type are inoculated in the treated photobioreactors after the solvent has evaporated. In commercial production, the herbicides can be added during production of the polyethyelene.
(§3) Culture aliquots are removed daily and cell densities of wild types and the transformed algae or cyanobacteria are compared.

[6] = tested on: ppo transformant algae; experiment: Dose response of ppo transformants versus wild type alga; format: cell-based; conditions: 0.1 μM, 0.3 μM, 0.5 μM in 24 well plates
Protocol: A dose response curve is generated for the wild type alga and for the transformants. The wild types and the transformant algae are plated in their medium in 24 well plates with increasing concentrations of 0.1 μM, 0.3 μM, 0.5 μM butafenacil or flumioxazin. Algae are plated without the herbicide as a control. […] The most resistant colonies are chosen for further analysis.

[7] = tested on: resistant pds transformed algae; experiment: Slow released herbicide embedded in photobioreactor lining: resistant transformed algae; format: cell-based; conditions: herbicide on inner side of photobioreactor, final concentration 10^−5 to 10^−7M if fully released
Description: as §2, §3

[8] = tested on: Chlamydomonas pds transformants; experiment: Contamination test: Chlamydomonas pds transformant alone and in mixed culture, with and without flurochloridone; format: cell-based, Chlamydomonas reinhardtii; conditions: flurochloridone addition; liquid medium, one week, daily counts under the microscope; mixed culture 10:1
Description: (§4) FIGS. 8A and B: Contamination test of Chlamydomonas pds transformant II5 versus the cyanobacterium Synechococcus PCC 7942. Chlamydomonas transformants and the cyanobacterium Synechococcus PCC7942 were inoculated alone and in mixed culture in a ratio of 10:1 with and without flurochloridone. Aliquots were removed daily and counted under the microscope. 8A represents the Chlamydomonas pds transformants counts and 8B represents the cyanobacterium Synechococcus PCC7942 counts.
(§5) To address the question of contaminants, the Chlamydomonas pds transformants were mixed with the cyanobacterium Synechococcus PCC7942, which is known to overtake ponds. A Chlamydomonas pds transformant and the cyanobacterium Synechococcus PCC7942 were inoculated alone and in mixed cultures with and without flurochloridone. The mixed culture was inoculated in a ratio of 10:1 Chlamydomonas pds transformants: Synechococcus PCC7942 wild type, respectively. The cells were allowed to grow for one week in liquid medium, with daily removal of aliquots. Contaminants versus target Chlamydomonas-cells were counted under the microscope (FIG. 8).

[9] = tested on: Synechococcus PCC7942; experiment: Contamination test: Synechococcus PCC7942 alone and in mixed culture, with and without flurochloridone; format: cell-based; conditions: flurochloridone addition; liquid medium, one week, daily counts under the microscope; mixed culture 10:1
Description: as §4, §5

[10] = tested on: Nannochloropsis cells transformed with pSI103-PDS; experiment: Cross resistance of Nannochloropsis cells transformed with pSI103-PDS; format: cell-based, Nannochloropsis oculata; conditions: Nannochloropsis transformants selected on ASW + 1 μM flurochloridone
Protocol: FIG. 3. Nannochloropsis cells were transformed with the pSI103-PDS construct (right panel) as well as control cells which were not transformed with DNA (left panel) plated on artificial sea water (ASW)+1 μM flurochloridone.
Nannochloropsis oculata CS179 cells were transformed with the PSI103-PDS construct using the ECM 830 electroporator (BTX Instrument Division, Harvard Apparatus, Inc., Holliston, Mass., USA) as described above. After transformation algae were plated on ASW+F/2 media (http://www.marine.csiro.au/microalgae/methods/) containing 10^−7M flurochloridone. After two weeks, algal colonies both from the transformation and the mock were replated on ASW+10^−6M flurochloridone plates. This allowed differentiation between false positives and true resistant clones (FIG. 3). This material was used in Example 4.

[11] = tested on: Hydrilla verticillata; conditions: cited from earlier work

COP(=S)(NC(C)C)Oc1ccc(C)cc1[N+](=O)[O-] (stereo not shown) [amiprophos-methyl]
effect on zooplankton [1]: killed | effect on wild type algae and cyanobacteria [2]: do not harm

CCCCN(CC)c1c([N+](=O)[O-])cc(C(F)(F)F)cc1[N+](=O)[O-] [benefin]
effect on zooplankton [1]: killed | effect on wild type algae and cyanobacteria [2]: do not harm

C=CCOC(=O)C(C)(C)OC(=O)c1cc(-n2c(=O)cc(C(F)(F)F)n(C)c2=O)ccc1Cl [butafenacil]
contaminants in mixed cultures containing the herbicide [3]: decreasing numbers of contaminants | wild-type algae growth [4]: inhibit | growth of the wild type culture [5]: completely inhibited | growth of transformants bearing the resistance gene in dose response [6]: ability to grow at higher concentrations than the wild type | growth of the resistant pds transformed algae [7]: unaffected

CCOP(=S)(NC(C)CC)Oc1cc(C)ccc1[N+](=O)[O-] (stereo not shown) [butamiphos]
effect on zooplankton [1]: killed | effect on wild type algae and cyanobacteria [2]: do not harm

CCC(C)Nc1c([N+](=O)[O-])cc(C(C)(C)C)cc1[N+](=O)[O-] (stereo not shown) [butralin]
effect on zooplankton [1]: killed | effect on wild type algae and cyanobacteria [2]: do not harm

COC(=O)c1c(Cl)c(Cl)c(C(=O)OC)c(Cl)c1Cl [chlorthal-dimethyl]
effect on zooplankton [1]: killed | effect on wild type algae and cyanobacteria [2]: do not harm

CCN(CC)c1c([N+](=O)[O-])cc(C(F)(F)F)c(N)c1[N+](=O)[O-] [dinitramine]
effect on zooplankton [1]: killed | effect on wild type algae and cyanobacteria [2]: do not harm

CSC(=O)c1c(C(F)F)nc(C(F)(F)F)c(C(=O)SC)c1CC(C)C [dithiopyr]
effect on zooplankton [1]: killed | effect on wild type algae and cyanobacteria [2]: do not harm

C=C(C)CN(CC)c1c([N+](=O)[O-])cc(C(F)(F)F)cc1[N+](=O)[O-] [ethalfluralin]
effect on zooplankton [1]: killed | effect on wild type algae and cyanobacteria [2]: do not harm

C#CCN1C(=O)COc2cc(F)c(N3C(=O)C4=C(CCCC4)C3=O)cc21 [flumioxazin]
contaminants in mixed cultures containing the herbicide [3]: decreasing numbers of contaminants | wild-type algae growth [4]: inhibit | growth of the wild type culture [5]: completely inhibited | growth of transformants bearing the resistance gene in dose response [6]: ability to grow at higher concentrations than the wild type | growth of the resistant pds transformed algae [7]: unaffected

O=C1C(Cl)C(CCl)CN1c1cccc(C(F)(F)F)c1 (stereo not shown) [flurochloridone]
growth of the resistant pds Chlamydomonas cells [8]: unaffected | growth of the wild type culture [5]: completely inhibited | growth of Synechococcus PCC7942 cells [9]: completely inhibited | growth of the resistant pds transformed algae [7]: unaffected

CNc1cnn(-c2cccc(C(F)(F)F)c2)c(=O)c1Cl [norflurazon]
cross resistance of the flurochloridone resistant material [10]: cross resistant

CCC(CC)Nc1c([N+](=O)[O-])cc(C)c(C)c1[N+](=O)[O-] [pendimethalin]
effect on zooplankton [1]: killed | effect on wild type algae and cyanobacteria [2]: do not harm

O=C(Nc1ccc(F)cc1)c1cccc(Oc2cccc(C(F)(F)F)c2)n1 [picolinafen]
cross resistance of the flurochloridone resistant material [10]: cross resistant

C#CC(C)(C)NC(=O)c1cc(Cl)cc(Cl)c1 [propyzamide]
effect on zooplankton [1]: killed | effect on wild type algae and cyanobacteria [2]: do not harm

CC(C)N(Cc1ccccc1)C(=O)C(C)(C)C [tebutam]
effect on zooplankton [1]: killed | effect on wild type algae and cyanobacteria [2]: do not harm

COC(=O)c1c(C(F)F)nc(C(F)(F)F)c(C2=NCCS2)c1CC(C)C [thiazopyr]
effect on zooplankton [1]: killed | effect on wild type algae and cyanobacteria [2]: do not harm

CCCN(CCC)c1c([N+](=O)[O-])cc(C(F)(F)F)cc1[N+](=O)[O-] [trifluralin]
effect on zooplankton [1]: killed | effect on wild type algae and cyanobacteria [2]: do not harm

fluridone
growth of the wild type culture [5]: completely inhibited | biomass accumulation, of the content in untreated plants ([11]; fluridone resistant biotypes): up to 72% | β-carotene accumulation, of the content in untreated plants ([11]; fluridone resistant biotypes): ≤ 77% | biomass accumulation, of the levels found in untreated plants ([11]; susceptible population): 10% | β-carotene accumulation, of the levels found in untreated plants ([11]; susceptible population): 10% | growth of the resistant pds transformed algae [7]: unaffected | cross resistance of the flurochloridone resistant material [10]: cross resistant
